US7250267B2, “Cross-reactive sensors” (priority 2001, dated 2007)

Experiments:
Assay type in all cases: biochemical
[1] = system: Esterase from Bacillus sp. (denoted bacteria-1); assay: Esterase hydrolysis microtiter plate assay with fluorescein pH indicator, bacteria esterase 1; settings: for Km / Vmax: Lineweaver-Burk plot, various ester concentrations, bacteria esterase 1
Procedure: (§1) A fluorescent pH indicator, fluorescein, was added to the reaction mixture to measure the change in acidity resulting from the hydrolysis reaction in a 96-well microtiter plate format. The fluorescence response was monitored over time to give a temporal pH-induced fluorescence pattern. […] Esterases have been used to test ester chirality (Janes et al., Chem. Eur. J, 1998, 4, 2324) and as synthetic tools for efficiently hydrolyzing a variety of esters (Ohno et al., Org. React, 1989, 37, 1). General Procedure for Enzyme-Based Sensor Array:
(§2) First, solutions of desired substrates (certain exemplary substrates are depicted in FIGS. 4 and 5) were made from 100 mM of substrate in CH3CN (or buffer, depending on the solubility of the ester). The analyte concentration was chosen to be at most one-fifth of the Michaelis constant (kM) for the esterases. All solvents and substrates were purchased from Aldrich, Sigma, and Fluka Chemical Companies and used as received.
(§3) In the present example, the microtiter plate assay contained the nine esterases in different columns and the ester analytes in the different rows. Each esterase catalyzed hydrolysis reaction was addressed individually to monitor the kinetics by scanning each well independently. After preparation of the desired solutions, to the microtiter plate was first pipetted (using a pipetman) 100 μL of the substrate solution into each well. […] The plate was allowed to shake for 10 seconds before the first reading. The reader reads 15 second intervals while shaking before each read. The plate was monitored for 90 seconds by a Molecular Devices, Spectra Max Gemini, fluorescence microtiter plate reader. The reader scans each row and column of the microtiter plate reading each well individually. Therefore, each enzyme was monitored individually and the enzyme's kinetics were measured at the same point in time. […] The MATLAB program analyzes the individual interactions and separates them into clusters, which can indicate the ability of the sensor to distinguish the analytes.
For mixture analysis, concentration runs of four esters, PA, ethyl valerate (EV), methyl nicotinate (MNI) and methyl 6-methyl nicotinate (MMNI) were performed with the nine esterases. The rates of the esterase reaction were plotted on a Lineweaver-Burk plot to determine the Km and Vmax and were used to identify subsequent mixtures of the four esters.

[2] = target: T1, Acetylcholine Esterase from Electrophorus electricus (Electrophorus electricus, UniProt O42275); assay: Esterase hydrolysis microtiter plate assay with fluorescein pH indicator, acetylcholine esterase; settings: for hydrolysis reaction slope after three months / initial slope range and standard deviation of hydrolysis reaction: with acetylcholine esterase; for initial slope range and standard deviation of hydrolysis reaction: measured initially
T1 construct: purchased Sigma and Fluka
Procedure: as §1, §2
as §3, with “The microtiter plate assay provides a rapid and reproducible system to measure the hydrolysis reactions. In” for “In”

[3] = system: Esterase from Bacillus thermoglucosidasius (denoted bacteria-2); assay: Esterase hydrolysis microtiter plate assay with fluorescein pH indicator, bacteria 2 esterase
Procedure: as §1
(§4) First, solutions of desired substrates (certain exemplary substrates are depicted in FIGS. 4 and 5) were made from 100 mM of substrate in CH3CN (or buffer, depending on the solubility of the ester). […]
(§5) The microtiter plate assay provides a rapid and reproducible system to measure the hydrolysis reactions. […] The plate was allowed to shake for 10 seconds before the first reading. The reader reads 15 second intervals while shaking before each read. The plate was monitored for 90 seconds by a Molecular Devices, Spectra Max Gemini, fluorescence microtiter plate reader. The reader scans each row and column of the microtiter plate reading each well individually. Therefore, each enzyme was monitored individually and the enzyme's kinetics were measured at the same point in time. […]

nine esterases = assay: Esterase hydrolysis microtiter plate assay, nine-esterase array
Procedure: as §1, §4, §5

T1 sequence (O42275 24-633): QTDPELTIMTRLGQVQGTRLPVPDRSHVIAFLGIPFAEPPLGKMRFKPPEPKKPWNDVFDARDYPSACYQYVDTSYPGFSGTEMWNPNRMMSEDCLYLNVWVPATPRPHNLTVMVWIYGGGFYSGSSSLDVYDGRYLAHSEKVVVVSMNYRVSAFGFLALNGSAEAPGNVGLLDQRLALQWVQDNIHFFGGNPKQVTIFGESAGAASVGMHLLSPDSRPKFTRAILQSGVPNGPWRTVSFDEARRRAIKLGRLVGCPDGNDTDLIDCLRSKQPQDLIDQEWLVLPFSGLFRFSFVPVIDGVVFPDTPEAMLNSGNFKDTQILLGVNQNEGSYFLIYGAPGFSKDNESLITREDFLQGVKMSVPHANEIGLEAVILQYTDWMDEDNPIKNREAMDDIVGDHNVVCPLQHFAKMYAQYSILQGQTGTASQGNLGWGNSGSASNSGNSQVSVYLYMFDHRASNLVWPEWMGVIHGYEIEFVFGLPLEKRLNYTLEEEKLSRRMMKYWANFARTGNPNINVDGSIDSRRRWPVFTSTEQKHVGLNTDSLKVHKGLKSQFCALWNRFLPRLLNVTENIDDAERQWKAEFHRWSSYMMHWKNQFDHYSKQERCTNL

In the case of `COC(=O)[C@H](C)N` [LM, L-alanine methyl ester], the “hydrolysis by bacteria 1 esterase” value [1] is reported as “hydrolyzed”, the “hydrolysis by acetylcholine esterase” value [2] is reported as “hydrolyzed” and the “hydrolysis by bacteria 2 esterase” value [3] is reported as “hydrolyzes only LM”.
With `COC(=O)[C@@H](C)N` [DM, D-alanine methyl ester] the “hydrolysis by bacteria 1 esterase” value [1] was “hydrolyzed”, the “hydrolysis by acetylcholine esterase” value [2] was “hydrolyzed” and the “hydrolysis by bacteria 2 esterase” value [3] was “not DM”.
In the case of `CCCC(=O)OC` [MB, methyl butyrate], the “hydrolysis reaction slope after three months” value (“hydrolysis reaction slope” below) [2] is reported as −1.3×10^2 fluorescence units/time and the “initial slope range and standard deviation of hydrolysis reaction” value [2] is reported as “(−1.3±0.01)×10^2 fluorescence units/time”.
For `CC(=O)Oc1ccccc1` [PA, Phenyl acetate], the “relative rate of hydrolysis among all of the esters” value (nine esterases) was “hydrolyzed the fastest”, the “hydrolysis reaction slope” value [2] was −1.5×10^3 fluorescence units/time and the “initial slope range and standard deviation of hydrolysis reaction” value [2] was “(−1.4±0.2)×10^2 fluorescence units/time”.
Compound `COC(=O)c1ccc(C)nc1` [methyl 6-methyl nicotinate, Methyl 6-methyl nicotinate] has a Km [1] of 2600 µM and a Vmax [1] of 4e-07 M/s.
Compound `CCCCC(=O)OCC` [ethyl valerate, Ethyl valerate] has a Km [1] of 1000 µM and a Vmax [1] of 2e-07 M/s.
In the case of `CCCC(=O)OCC` [BA, Ethyl butyrate], the “hydrolysis reaction slope” value [2] is reported as −3.2×10^2 fluorescence units/time and the “initial slope range and standard deviation of hydrolysis reaction” value [2] is reported as “(−2.9±1.6)×10^3 fluorescence units/time”.
